Assay results taken from patent US20240368120A1 (Terns Pharmaceuticals, Inc., priority 2023, published 2024).

Target: T1, human GLP-1R receptor (Homo sapiens, UniProt P43220)
T1 construct: expressed in transfected cells
Assay: GLP-1R low expression cell assay (cAMP TR-FRET, CHO-K1_hGLP-1Rlow_clone10 cells)
Type: cell-based
Settings: for EC50: cAMP TR-FRET, 30 min at 25° C.; for Emax: maximum activation relative to control GLP-1 peptide agonist
In short: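 CHO-K1 cells stably expressing low surface human GLP-1R (clone10), 1,000 cells/well, exposed to 10-point 3-fold compound dilutions for 30 min at 25 °C. cAMP measured by TR-FRET (Eu-cAMP tracer/ULight-anti-cAMP, 15 min). EC50 from Hill fit of duplicate percent activation relative to a parallel GLP-1 control agonist.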

T1 sequence (P43220 24-463): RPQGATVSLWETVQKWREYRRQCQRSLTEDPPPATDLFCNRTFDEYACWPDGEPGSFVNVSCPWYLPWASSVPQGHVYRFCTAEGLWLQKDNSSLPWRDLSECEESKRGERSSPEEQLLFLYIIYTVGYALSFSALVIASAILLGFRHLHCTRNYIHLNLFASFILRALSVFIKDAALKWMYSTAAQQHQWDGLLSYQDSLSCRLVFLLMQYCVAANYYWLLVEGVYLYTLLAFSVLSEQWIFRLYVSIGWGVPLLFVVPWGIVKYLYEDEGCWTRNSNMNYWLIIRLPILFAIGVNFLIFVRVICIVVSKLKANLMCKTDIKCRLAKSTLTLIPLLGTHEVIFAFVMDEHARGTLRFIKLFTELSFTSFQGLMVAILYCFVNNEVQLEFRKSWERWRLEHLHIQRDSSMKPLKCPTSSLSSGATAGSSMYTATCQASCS

SMILES	EC50 [nM]	Emax [%]
Cn1c(CN2CCC(c3cccc4c3O[C@@H](c3ccc(Cl)cc3F)CC4)CC2)nc2c(OC(F)F)cc(C(=O)O)cc21 [Compound 369, (R)-2-((4-(2-(4-Chloro-2-fluorophenyl)chroman-8-yl)piperidin-1-yl)methyl)-4-(difluoromethoxy)-1-methyl-1H-benzo[d]imidazole-6-carboxylic acid]	> 1000	< 25
Cn1c(CN2CCC(c3cccc(OCc4ccc(Cl)cc4F)n3)CC2)nc2c(OC(F)F)nc(C(=O)O)cc21 [Compound 253, 2-((4-(6-((4-Chloro-2-fluorobenzyl)oxy)pyridin-2-yl)piperidin-1-yl)methyl)-4-(difluoromethoxy)-1-methyl-1H-imidazo[4,5-c]pyridine-6-carboxylic acid]	10 to 100	–
COc1cc(C(=O)O)cc2c1nc(Cc1ccc(-c3cccc(OCc4ccc(Cl)cc4F)n3)cc1F)n2C [Compound 292, 2-(4-(6-((4-Chloro-2-fluorobenzyl)oxy)pyridin-2-yl)-2-fluorobenzyl)-4-methoxy-1-methyl-1H-benzo[d]imidazole-6-carboxylic acid]	< 10	> 85
COc1cc(C(=O)O)nc2c1nc(CN1CCC(c3cccc(OCc4ccc(Cl)cc4F)n3)CC1)n2C [Compound 324, 2-((4-(6-((4-Chloro-2-fluorobenzyl)oxy)pyridin-2-yl)piperidin-1-yl)methyl)-7-methoxy-3-methyl-3H-imidazo[4,5-b]pyridine-5-carboxylic acid]	10 to 100	> 85
Cn1c(Cc2cc(F)c(-c3cccc(OCc4ccc(Cl)cc4F)n3)cc2F)nc2c(OC(F)F)cc(C(=O)O)cc21 [Compound 197, 2-(4-(6-((4-Chloro-2-fluorobenzyl)oxy)pyridin-2-yl)-2,5-difluorobenzyl)-4-(difluoromethoxy)-1-methyl-1H-benzo[d]imidazole-6-carboxylic acid]	< 10	> 85
O=C(O)c1cc(OC(F)F)c2c(c1)nc(CN1CCC(c3cccc(OCc4ccc(Cl)cc4F)n3)CC1)n2CF [Compound 206, 2-((4-(6-((4-Chloro-2-fluorobenzyl)oxy)pyridin-2-yl)piperidin-1-yl)methyl)-7-(difluoromethoxy)-1-(fluoromethyl)-1H-benzo[d]imidazole-5-carboxylic acid]	> 1000	< 25
Cn1c(CN2CCC(c3ccnc(OCc4ccc(C#N)cc4F)n3)CC2)nc2c(OC(F)F)cc(C(=O)O)cc21 [Compound 145, 2-((4-(2-((4-Cyano-2-fluorobenzyl)oxy)pyrimidin-4-yl)piperidin-1-yl)methyl)-4-(difluoromethoxy)-1-methyl-1H-benzo[d]imidazole-6-carboxylic acid]	100 to 1000	> 85
COCCOc1cc(C(=O)O)cc2c1nc(CN1CCC(c3cccc4c3O[C@](C)(c3ccc(Cl)cn3)O4)CC1)n2Cc1cncs1 [Compound 3, (R)-2-((4-(2-(5-Chloropyridin-2-yl)-2-methylbenzo[d][1,3]dioxol-4-yl)piperidin-1-yl)methyl)-4-(2-methoxyethoxy)-1-(thiazol-5-ylmethyl)-1H-benzo[d]imidazole-6-carboxylic acid]	100 to 1000	> 85
O=C(O)c1cc(OCF)c2nc(CN3CCC(c4cccc(OCc5ccc(Cl)cc5F)n4)CC3)n(CF)c2c1 [Compound 346, 2-((4-(6-((4-Chloro-2-fluorobenzyl)oxy)pyridin-2-yl)piperidin-1-yl)methyl)-4-(fluoromethoxy)-1-(fluoromethyl)-1H-benzo[d]imidazole-6-carboxylic acid]	10 to 100	> 85
COc1cc(C(=O)O)cc2c1nc(CN1CCC(c3cccc4c3O[C@@H](c3ccc(C#N)cc3F)CO4)CC1)n2C [Compound 314, (S)-2-((4-(3-(4-Cyano-2-fluorophenyl)-2,3-dihydrobenzo[b][1,4]dioxin-5-yl)piperidin-1-yl)methyl)-4-methoxy-1-methyl-1H-benzo[d]imidazole-6-carboxylic acid]	> 1000	25 to 50
Cn1c(CN2CCC(c3cccc(OCc4ccc(Cl)cc4F)n3)CC2)nc2c3c(c(C(=O)O)cc21)OCCO3 [Compound 311, 2-((4-(6-((4-chloro-2-fluorobenzyl)oxy)pyridin-2-yl)piperidin-1-yl)methyl)-3-methyl-7,8-dihydro-3H-[1,4]dioxino[2′,3′:3,4]benzo[1,2-d]imidazole-5-carboxylic acid]	10 to 100	> 85
CN(c1nc2c(OC(F)F)cc(C(=O)O)cc2n1C[C@@H]1CCO1)[C@H]1CC[C@@H](c2cccc(OCc3ccc(C#N)cc3F)n2)CC1 [Compound 131, 2-(((1s,4R)-4-(6-((4-cyano-2-fluorobenzyl)oxy)pyridin-2-yl)cyclohexyl) (methyl)amino)-4-(difluoromethoxy)-1-(((S)-oxetan-2-yl)methyl)-1H-benzo[d]imidazole-6-carboxylic acid]	100 to 1000	> 85
CCOc1cc(-c2nnn[nH]2)cc2c1nc(CN1CCC(c3cccc(OCc4ccc(C#N)cc4F)n3)CC1)n2C [Compound 273, 4-(((6-(1-((4-ethoxy-1-methyl-6-(1H-tetrazol-5-yl)-1H-benzo[d]imidazol-2-yl)methyl)piperidin-4-yl)pyridin-2-yl)oxy)methyl)-3-fluorobenzonitrile]	< 10	> 85
CCOc1cc(CC(=O)O)cc2c1nc(CN1CCC(c3cccc(OCc4ccc(C#N)cc4F)n3)CC1)n2C [Compound 259, 2-(2-((4-(6-((4-Cyano-2-fluorobenzyl)oxy)pyridin-2-yl)piperidin-1-yl)methyl)-4-ethoxy-1-methyl-1H-benzo[d]imidazol-6-yl) acetic acid]	100 to 1000	> 85
COc1cc(C(=O)O)cc2c1nc(CN1CCC(c3cccc4c3OC[C@@H](c3ccc(Cl)cc3F)O4)CC1)n2C [Compound 271, (R)-2-((4-(2-(4-Chloro-2-fluorophenyl)-2,3-dihydrobenzo[b][1,4]dioxin-5-yl)piperidin-1-yl)methyl)-4-methoxy-1-methyl-1H-benzo[d]imidazole-6-carboxylic acid]	100 to 1000	50 to 85
COc1cc(C(=O)O)cc2c1nc(CN1CCC(c3cccc4c3O[C@@](C)(c3ccc(Cl)cn3)O4)CC1)n2Cc1cncs1 [Compound 32, (S)-2-((4-(2-(5-Chloropyridin-2-yl)-2-methylbenzo[d][1,3]dioxol-4-yl)piperidin-1-yl)methyl)-4-methoxy-1-(thiazol-5-ylmethyl)-1H-benzo[d]imidazole-6-carboxylic acid]	< 10	–
Cn1c(CN2CCC(c3cccc(OCc4ccc(Cl)cc4F)c3)CC2)nc2c(OC(F)F)cc(NCC(=O)O)cc21 [Compound 264, (2-((4-(3-((4-chloro-2-fluorobenzyl)oxy)phenyl)piperidin-1-yl)methyl)-4-(difluoromethoxy)-1-methyl-1H-benzo[d]imidazol-6-yl)glycine]	> 1000	25 to 50
COCCOc1cc(C(=O)O)cc2[nH]c(CN3CCC(c4cccc5c4O[C@@](C)(c4ccc(Cl)cn4)O5)CC3)nc12 [Compound 74, (S)-2-((4-(2-(5-Chloropyridin-2-yl)-2-methylbenzo[d][1,3]dioxol-4-yl)piperidin-1-yl)methyl)-4-(2-methoxyethoxy)-1H-benzo[d]imidazole-6-carboxylic acid]	10 to 100	> 85
Cn1c(CN2CCC(c3cccc(OCc4ccc(Cl)cc4F)n3)CC2)nc2c(OC(F)F)cc(-c3n[nH]c(=O)o3)cc21 [Compound 234, 5-(2-((4-(6-((4-Chloro-2-fluorobenzyl)oxy)pyridin-2-yl)piperidin-1-yl)methyl)-4-(difluoromethoxy)-1-methyl-1H-benzo[d]imidazol-6-yl)-1,3,4-oxadiazol-2 (3H)-one]	> 1000	< 25
Cn1c(CN2CCC(c3cccc(OCc4ccc(Cl)cc4F)n3)CC2)nc2c(OCC3CC3)cc(C(=O)O)cc21 [Compound 357, 2-((4-(6-((4-Chloro-2-fluorobenzyl)oxy)pyridin-2-yl)piperidin-1-yl)methyl)-4-(cyclopropylmethoxy)-1-methyl-1H-benzo[d]imidazole-6-carboxylic acid]	< 10	> 85
Cn1c(CN2CCC(c3ccc4c(c3)N(Cc3ccc(Cl)cc3F)C(=O)CO4)CC2)nc2c(OC(F)F)cc(C(=O)O)cc21 [Compound 193, 2-((4-(4-(4-chloro-2-fluorobenzyl)-3-oxo-3,4-dihydro-2H-benzo[b][1,4]oxazin-6-yl)piperidin-1-yl)methyl)-4-(difluoromethoxy)-1-methyl-1H-benzo[d]imidazole-6-carboxylic acid]	> 1000	< 25
C[C@H](F)Oc1cc(C(=O)O)cc2c1nc(CN1CCC(c3cccc(OCc4ccc(Cl)cc4F)n3)CC1)n2C (single isomer, unassigned) [Compound 360]	< 10	> 85
Cn1c(CN2CCC(c3cccc(OCc4ccc(Cl)c5c4OCC5)n3)CC2)nc2c(OC(F)F)cc(C(=O)O)cc21 [Compound 331, 2-((4-(6-((4-Chloro-2,3-dihydrobenzofuran-7-yl)methoxy)pyridin-2-yl)piperidin-1-yl)methyl)-4-(difluoromethoxy)-1-methyl-1H-benzo[d]imidazole-6-carboxylic acid]	10 to 100	> 85
Cn1c(CN2CCC(c3cccc(COc4ccc(C#N)cc4F)n3)CC2)nc2c(OC(F)F)cc(C(=O)O)cc21 [Compound 130, 2-((4-(6-((4-Cyano-2-fluorophenoxy)methyl)pyridin-2-yl)piperidin-1-yl)methyl)-4-(difluoromethoxy)-1-methyl-1H-benzo[d]imidazole-6-carboxylic acid]	> 1000	25 to 50
Cn1c(CN2CCC(c3cncc(OCc4ccc(Cl)cc4F)n3)CC2)nc2c(OC(F)F)cc(C(=O)O)cc21 [Compound 374, 2-((4-(6-((4-Chloro-2-fluorobenzyl)oxy)pyrazin-2-yl)piperidin-1-yl)methyl)-4-(difluoromethoxy)-1-methyl-1H-benzo[d]imidazole-6-carboxylic acid]	100 to 1000	> 85
